Measured values reported in patent US8293705B2, “HCV protease inhibitors and uses thereof” (Avila Therapeutics, Inc., priority 2007, dated 2012).
Where “and” joins values, the source holds several entries; their conditions need not be identical. Identical values can stand only once.

Columns and labels:
[1] = biological target: T1, HCV NS3/4A 1b protease D168A (Hepatitis C virus genotype 1b, UniProt Q9WMX2, D1194A); assay: HCV protease FRET assay (IC50_APP), Example 16; type: biochemical
T1 construct: 10× stocks of NS3/4A protease enzyme from Bioenza (Mountain View, Calif.); purchased Bioenza (Mountain View, Calif.)

[2] = biological target: T2, HCV NS3/4A 1b protease wild type (Hepatitis C virus genotype 1b, UniProt Q9WMX2); assay: HCV protease FRET assay (IC50_APP), Example 16; type: biochemical
T2 construct: 10× stocks of NS3/4A protease enzyme from Bioenza (Mountain View, Calif.); purchased Bioenza (Mountain View, Calif.)

[3] = biological target: T3, HCV NS3/4A 1b protease A156T (Hepatitis C virus genotype 1b, UniProt Q9WMX2, A1182T); assay: HCV protease FRET assay (IC50_APP), Example 16; type: biochemical
T3 construct: 10× stocks of NS3/4A protease enzyme from Bioenza (Mountain View, Calif.); purchased Bioenza (Mountain View, Calif.)

HCV NS3/4A wild type = biological target: T4, HCV NS3/4A wild type (Hepatitis C virus genotype 1b, UniProt Q9WMX2); assay: Mass spectrometric analysis of covalent modification (MALDI-TOF); type: binding; details: 10× excess of test compound to protein; MALDI-TOF
T4 construct: HCV NS3/4A wild type (wt) was incubated for 1 hr at a 10× fold access of test compound to protein; purchased Bioenza, Calif
Protocol: Mass spectrometric analysis of HCV wild type or HCV variant C159S in the presence of test compound is performed. 100 pmols of HCV wild type (Bioenza, Calif.) is incubated with test compound for 1 hr and 3 hrs at 10-fold access of test compound to protein. 1 ul aliquots of the samples (total volume of 4.24 ul) are diluted with 10 ul of 0.1% TFA prior to micro C4 ZipTipping directly onto the MALDI target using Sinapinic acid as the desorption matrix (10 mg/mL in 0.1% TFA:Acetonitrile 50:50). Analyses are performed on a Shimadzu Biotech Axima TOF2 (Shimadzu Instruments) matrix-assisted-laser desorption/ionization Time-of-Flight (MALDI-TOF) mass spectrometer. The same procedure is carried out on 100 pmols of HCV C159S mutant of HCV protease for 3 hrs at 10-fold excess of test compound to protein.
As depicted in FIGS. 1 and 2, mass spectrometric analysis of HCV wild type in the presence of test compounds I-1 and I-25 was performed using the following protocol: HCV NS3/4A wild type (wt) was incubated for 1 hr at a 10× fold access of test compound to protein. 2 ul aliquots of the samples were diluted with 10 ul of 0.1% TFA prior to micro C4 ZipTipping directly onto the MALDI target using Sinapinic acid as the desorption matrix (10 mg/ml in 0.1% TFA:Acetonitrile 50:50). For intact protein mass measurement the instrument was set in linear mode using a pulsed extraction setting of 24,500 and apomyoglobin as the standard to calibrate the instrument.

[4] = biological target: T1, HCV NS3/4A 1b protease D168A; assay: HCV protease FRET assay (IC50), Example 15; type: biochemical; details: Inhibition (IC50), HCV D168A, FRET, 30 min pre-incubation at 25° C.
Protocol: (§1) The following protocol was used to generate IC50 values as depicted for compound 239 in Table 4, above. The protocol is a modified FRET-based assay (v—02) from In Vitro Resistance Studies of HCV Serine Protease Inhibitors, 2004, JBC, vol. 279, No. 17, pp 17508-17514.
(§2) 10× stocks of NS3/4A protease enzyme from Bioenza (Mountain View, Calif.) and 1.13× 5-FAM/QXL™520 FRET peptide substrate from Anaspec (San Jose, Calif.) were prepared in 50 mM HEPES, pH 7.8, 100 mM NaCl, 5 mM DTT and 20% glycerol. 5 μL of each enzyme were pre-incubated in a Corning (#3573) 384-well, black, non-treated microtiter plate (Corning, N.Y.) for 30 min at 25° C. with a 0.5 μL volume of 50% DMSO and serially diluted compounds prepared in 50% DMSO. Protease reactions were started with the addition of 45 μL of the FRET substrate and monitored for 120 minutes at λex487/λem514 through Quad^4 monochromoters in a Synergy^4 plate reader from BioTek (Winooski, Vt.). At the conclusion of each assay, progress curves from each well were examined for linear reaction kinetics and fit statistics (R^2, absolute sum of squares). Initial velocity (0 minutes to 30+ minutes) from each reaction was determined from the slope of a plot of relative fluorescence units vs time (minutes) and then plotted against inhibitor concentration to estimate IC50 from log [Inhibitor] vs Response, Variable Slope model in GraphPad Prism from GraphPad Software (San Diego, Calif.).
(§3) The compound numbers correspond to the compound numbers in Table 3. […] ;

[5] = biological target: T2, HCV NS3/4A 1b protease wild type; assay: HCV protease FRET assay (IC50), Example 15; type: biochemical
Protocol: as §1, §2, §3

[6] = biological target: T3, HCV NS3/4A 1b protease A156T; assay: HCV protease FRET assay (IC50), Example 15; type: biochemical; details: Inhibition (IC50), HCV A156T, FRET, 30 min pre-incubation at 25° C.
Protocol: as §1, §2, §3

[7] = test system: HCV RNA replicon in cell line ET (luc-ubi-neo/ET), human Huh7 hepatoma; assay: HCV RNA replicon assay, Example 14 Method A; type: cell-based; details: Hepatitis C virus, Huh-7, assay of Example 14, 72 hr; for IC50: read-out: Inhibition, Replicon (IC50); for IC90: read-out: Inhibition, Replicon, IC90 value
Protocol: The compounds were assayed to evaluate the antiviral activity and cytotoxicity of compounds in vitro using HCV RNA replicons. This assay used the cell line ET (luc-ubi-neo/ET), which is a human Huh7 hepatoma cell line that contains an HCV RNA replicon with a stable luciferase (Luc) reporter and three cell culture-adaptive mutations. […]
The ET cell line was grown in Dulbecco's modified essential media (DMEM), 10% fetal bovine serum (FBS), 1% penicillin-streptomycin (pen-strep), 1% glutamine, 250 μg/mL G418 in a 5% CO2 incubator at 37° C. All cell culture reagents were obtained from Mediatech (Manassas, Va.). Cells were trypsinized (1% trypsin:EDTA) and plated out at 5×10^3 cells/well in white 96-well assay plates (Costar) dedicated to cell number (cytotoxicity) or antiviral activity assessments. Drugs were added at six 3-fold concentrations each and the assay was run in DMEM, 5% FBS, 1% pen-strep, 1% glutamine. Human interferon alpha-2b (PBL Biolabs, New Brunswick, N.J.) was included in each run as a positive control compound. Cells were processed 72 hr post drug addition when the cells are still subconfluent. Antiviral activity was measured by analyzing replicon-derived luciferase activity using the Steady-Glo Luciferase Assay System (Promega, Madison, Wis.) according to manufacturer's instruction. The number of cells in each well was determined by CytoTox-1 reagent (Promega). Compound profile was derived by calculating applicable EC50 (effective concentration inhibiting virus replication by 50%), EC90 (effective concentration inhibiting virus replication by 90%), IC50 (concentration decreasing cell viability by 50%) and SI50 (selective index: […]) values.

HCV NS3/4A D168A = HCV NS3/4A D168A (Hepatitis C virus genotype 1b, UniProt Q9WMX2, D1194A); assay: Mass spectrometric analysis of covalent modification; type: binding; details: methods described in Example 18
Protocol: HCV is incubated with test compound for 3 hrs prior to tryptic digestion. Todoacetamide is used as the alkylating agent after compound incubation. For tryptic digests a 2 ul aliquot (0.06 ug/ul) is diluted with 10 ul of 0.1% TFA prior to micro C18 Zip Tipping directly onto the MALDI target using alpha cyano-4-hydroxy cinnamic acid as the matrix (5 mg/mL in 0.1% TFA:Acetonitrile 50:50).
For tryptic digests the instrument is set in Reflectron mode with a pulsed extraction setting of 1800. Calibration is done using the Laser Biolabs Pep Mix standard (1046.54, 1296.69, 1672.92, 2093.09, 2465.20). For CID/PSD analysis the peptide is selected using cursors to set ion gate timing and fragmentation occurred at a laser power about 20% higher and He is used as the collision gas for CID. Calibration for fragments is done using the P14R fragmentation calibration for the Curved field Reflectron.
As depicted in FIGS. 4, 5, 6, and 7, mass spectrometric analysis of HCV mutants in the presence of compound I-11 was performed. […] 2 ul aliquots of the samples were diluted with 10 ul of 0.1% TFA prior to micro C4 ZipTipping directly onto the MALDI target using Sinapinic acid as the desorption matrix (10 mg/ml in 0.1% TFA:Acetonitrile 50:50). […]

[8] = biological target: T5, NS3 protease self-cleavage in Huh-7-Luc-Neo-ET replicon cells (Hepatitis C virus genotype 1b, UniProt Q9WMX2, E1202G/T1280I); assay: Inhibition of protease self cleavage in replicon cells (washout); type: cell-based; details: 16 hours incubation, then removed
T5 construct: blotted with polyclonal anti NS3 antibody (Bioenza, Calif.)
Protocol: Huh-7-Luc-Neo-ET cells were plated in Replicon Assay Medium (RPMI supplemented with 5% FBS, 1× non-essential amino acids and pen/strep) at a density of 1×10^5 cells/well in 12 well plates. Eight hours later the media was removed and replaced with 1 ml media containing test compound (5 wells per compound) and 0.02% DMSO and the cells were returned to the incubator overnight. Sixteen hours later 1 well from each compound and 1 untreated well were washed with PBS, then lysed and scraped into 30 ul of Cell Extraction Buffer (Biosource, Camarillo, Calif.) plus Complete Protease Inhibitor (Roche, Indianapolis, Ind.). The remaining wells were rinsed 2× with PBS then fed with Replicon Media and returned to the incubator. […]
Cell lysates were separated by SDS-Page (4-20%) and transferred to Immobilon-P PVDF membrane (Millipore Corporation, MA) and blotted with polyclonal anti NS3 antibody (Bioenza, Calif.). Blots were scanned on an Odyssey infrared scanner from Licor and the FL band and cleavage products were quantified separately using the Licor software provided with the scanner. The cleavage product was calculated as a percentage of the total NS3 in each sample and then normalized to the DMSO control so that the DMSO control reflects 100% activity.

Compound	IC50 [1]	IC50 [2]	IC50 [3]	Covalent modification of HCV NS3/4A wild type (HCV NS3/4A wild type)	IC50 [4]	IC50 [5]	IC50 [6]	IC50 [7]	IC90 [7]	Covalent modification of HCV NS3/4A D168A (HCV NS3/4A D168A)	Time to virtually complete return of NS3 self-cleaving activity after drug removal [8]
C=CC(=O)NCC(=O)N1C[C@H](OC(=O)N2Cc3cccc(F)c3C2)C[C@H]1C(=O)N[C@]1(C(=O)NS(=O)(=O)C2CC2)C[C@H]1C=C [Compound I-6, (3R,5S)-1-(2-acrylamidoacetyl)-5-((1R,2S)-1-(cyclopropylsulfonylcarbamoyl)-2-vinylcyclopropylcarbamoyl)pyrrolidin-3-yl 4-fluoroisoindoline-2-carboxylate]	100 to 1000 nM	< 10 nM	< 10 nM	measurable covalent modification	10 to 100 nM	< 10 nM	< 10 nM	100 to 1000 nM	1000 to 10000 nM	–	–
C=C[C@@H]1C[C@]1(NC(=O)[C@@H]1C[C@@H](OC(=O)N2Cc3cccc(F)c3C2)CN1C(=O)CNC(=O)/C=C/C)C(=O)NS(=O)(=O)C1CC1 [Compound I-7, (3R,5S)-1-(2-(E)-but-2-enamidoacetyl)-5-((1R,2S)-1-(cyclopropylsulfonylcarbamoyl)-2-vinylcyclopropylcarbamoyl)pyrrolidin-3-yl-4-fluoroisoindoline-2-carboxylate]	1000 to 10000 nM	100 to 1000 nM	100 to 1000 nM	–	1000 to 10000 nM	10 to 100 nM	–	–	–	–	–
C=CC(=O)NC[C@H](NC(=O)OC1CCCC1)C(=O)N1C[C@H](OC(=O)N2Cc3cccc(F)c3C2)C[C@H]1C(=O)N[C@]1(C(=O)NS(=O)(=O)C2CC2)C[C@H]1C=C [Compound I-19, (3R,5S)-1-((S)-3-acrylamido-2-(cyclopentyloxycarbonylamino)propanoyl)-5-((1R,2S)-1-(cyclopropylsulfonylcarbamoyl)-2-vinylcyclopropylcarbamoyl)pyrrolidin-3-yl 4-fluoroisoindoline-2-carboxylate]	10 to 100 nM	< 10 nM	< 10 nM	measurable covalent modification	–	–	–	–	–	measurable covalent modification	–
C=CC(=O)O[C@H](C)[C@H](NC(=O)OC(C)(C)C)C(=O)N1C[C@H](OC(=O)N2Cc3cccc(F)c3C2)C[C@H]1C(=O)N[C@]1(C(=O)NS(=O)(=O)C2CC2)C[C@H]1C=C [Compound I-24, (3R,5S)-1-((2S,3R)-3-(acryloyloxy)-2-(tert-butoxycarbonylamino)butanoyl)-5-((1R,2S)-1-(cyclopropylsulfonylcarbamoyl)-2-vinylcyclopropylcarbamoyl)pyrrolidin-3-yl 4-fluoroisoindoline-2-carboxylate]	< 10 nM	< 10 nM	< 10 nM	measurable covalent modification	–	–	–	10 to 100 nM	100 to 1000 nM	measurable covalent modification	–
CCC[C@H](NC(=O)[C@@H]1[C@H]2CCC[C@H]2CN1C(=O)[C@@H](NC(=O)[C@@H](NC(=O)c1cnccn1)C1CCCCC1)C(C)(C)C)C(=O)C(=O)NC1CC1 [VX-950]	–	–	–	–	–	–	–	–	–	–	4 h and 8 h
